Results on 14 compounds are retold here after ChEMBL document CHEMBL1909046, “DrugMatrix in vitro pharmacology data”.

The target in data set [1] is Cytochrome P450 3A4 (Homo sapiens, UniProt P08684). The note with it: bti-tn-5b1-4. Further: in other assays of this panel Not Active means under 50% inhibition at 10 µM.
Data set [2] has as its target Insulin receptor (Rattus norvegicus, UniProt P15127). The data set is classed as cell membranes, Wistar, Liver, Membrane. Further: in other assays of this panel Not Active means under 50% inhibition at 10 µM.
The target of data set [3] is Matrix metalloproteinase-9 (Homo sapiens, UniProt P14780). As to the kind of experiment: biochemical. The data set is classed as cell-based.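 Further: inhibition of isolated MMP-9 enzyme activity toward a synthetic peptide substrate, from the DrugMatrix protease screening panel; in other assays of this panel Not Active means under 50% inhibition at 10 µM.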
Sequence of Matrix metalloproteinase-9 (P14780 whole entry): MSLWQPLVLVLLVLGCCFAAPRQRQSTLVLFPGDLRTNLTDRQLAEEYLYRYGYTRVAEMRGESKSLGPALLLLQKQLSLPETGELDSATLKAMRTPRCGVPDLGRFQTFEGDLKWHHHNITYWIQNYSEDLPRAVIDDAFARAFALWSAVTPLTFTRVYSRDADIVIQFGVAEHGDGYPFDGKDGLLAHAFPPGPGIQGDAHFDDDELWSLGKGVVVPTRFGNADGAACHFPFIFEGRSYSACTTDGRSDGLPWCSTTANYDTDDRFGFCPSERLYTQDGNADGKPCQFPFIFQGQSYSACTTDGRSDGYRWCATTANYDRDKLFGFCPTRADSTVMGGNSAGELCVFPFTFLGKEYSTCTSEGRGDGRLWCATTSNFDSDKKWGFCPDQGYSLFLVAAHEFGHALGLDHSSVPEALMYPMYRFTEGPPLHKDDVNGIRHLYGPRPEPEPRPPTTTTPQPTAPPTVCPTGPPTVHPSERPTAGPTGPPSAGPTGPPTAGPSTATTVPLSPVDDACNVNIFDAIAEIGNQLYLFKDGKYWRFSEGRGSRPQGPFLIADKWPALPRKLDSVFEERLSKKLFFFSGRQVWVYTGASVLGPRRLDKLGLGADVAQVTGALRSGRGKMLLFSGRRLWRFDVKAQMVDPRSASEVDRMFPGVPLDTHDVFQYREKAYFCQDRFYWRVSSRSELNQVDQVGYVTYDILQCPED
A short description of data set [4]: DRUGMATRIX: Potassium Channel [KATP] radioligand binding (ligand: [3H] Glyburide). The data set is classed as cell membranes, Membrane. The note with it: hit-t15; Not Active = under 50% inhibition at 10 µM.
Data set [5] addresses Cytochrome P450 2E1 (Homo sapiens, UniProt P05181). To be noted: bti-tn-5b1-4.
Data set [6] can be described thus: DRUGMATRIX: Platelet-Derived Growth Factor (PDGF) radioligand binding (ligand: [125I] PDGF). It counts as cell-based. To be noted: nih3t3; Not Active = under 50% inhibition at 10 µM.
Data set [7] concerns the target Platelet-activating factor receptor (Homo sapiens, UniProt P25105). It counts as tissue-based. Further: in other assays of this panel Not Active means under 50% inhibition at 10 µM.
The nature of data set [8]: DRUGMATRIX: Sodium/nucleoside co-transporter radioligand binding (ligand: nitrobenzylthioinosine). It counts as cell membranes, Cavia porcellus, Dunkin-Hartley, Cerebral cortex, Membrane. To be noted: Not Active = under 50% inhibition at 10 µM.
The target in data set [9] is T1, C-C chemokine receptor type 4 (Homo sapiens, UniProt P51679). Further: in other assays of this panel Not Active means under 50% inhibition at 10 µM.
T1 sequence (P51679 whole entry): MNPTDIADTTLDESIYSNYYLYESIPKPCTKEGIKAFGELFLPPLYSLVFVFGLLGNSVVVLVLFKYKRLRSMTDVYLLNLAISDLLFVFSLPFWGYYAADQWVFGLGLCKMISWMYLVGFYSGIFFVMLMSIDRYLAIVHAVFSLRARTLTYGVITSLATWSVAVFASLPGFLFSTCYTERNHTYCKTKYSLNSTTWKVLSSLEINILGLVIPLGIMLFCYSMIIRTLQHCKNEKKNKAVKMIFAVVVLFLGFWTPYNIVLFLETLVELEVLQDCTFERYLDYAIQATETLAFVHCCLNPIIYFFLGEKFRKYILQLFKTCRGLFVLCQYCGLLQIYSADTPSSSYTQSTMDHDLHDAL
It counts as cell membranes, Membrane. The note with it: chem-1.

pIC50: −log10 of the molar value.

Sequence of Cytochrome P450 3A4 (P08684 whole entry): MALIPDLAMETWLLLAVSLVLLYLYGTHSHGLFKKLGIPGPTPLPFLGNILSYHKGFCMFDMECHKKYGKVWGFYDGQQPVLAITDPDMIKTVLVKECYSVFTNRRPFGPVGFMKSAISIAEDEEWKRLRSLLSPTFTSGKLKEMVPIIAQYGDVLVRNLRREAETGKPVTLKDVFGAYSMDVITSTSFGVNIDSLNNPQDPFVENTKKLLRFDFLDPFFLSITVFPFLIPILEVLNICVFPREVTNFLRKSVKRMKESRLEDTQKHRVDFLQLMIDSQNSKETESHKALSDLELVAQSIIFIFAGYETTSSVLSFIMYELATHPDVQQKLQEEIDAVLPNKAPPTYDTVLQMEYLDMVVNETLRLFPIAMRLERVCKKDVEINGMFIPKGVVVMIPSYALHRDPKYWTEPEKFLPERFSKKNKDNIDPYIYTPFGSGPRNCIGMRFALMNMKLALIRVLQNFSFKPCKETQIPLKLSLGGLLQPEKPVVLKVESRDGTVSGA
Sequence of Platelet-activating factor receptor (P25105 whole entry): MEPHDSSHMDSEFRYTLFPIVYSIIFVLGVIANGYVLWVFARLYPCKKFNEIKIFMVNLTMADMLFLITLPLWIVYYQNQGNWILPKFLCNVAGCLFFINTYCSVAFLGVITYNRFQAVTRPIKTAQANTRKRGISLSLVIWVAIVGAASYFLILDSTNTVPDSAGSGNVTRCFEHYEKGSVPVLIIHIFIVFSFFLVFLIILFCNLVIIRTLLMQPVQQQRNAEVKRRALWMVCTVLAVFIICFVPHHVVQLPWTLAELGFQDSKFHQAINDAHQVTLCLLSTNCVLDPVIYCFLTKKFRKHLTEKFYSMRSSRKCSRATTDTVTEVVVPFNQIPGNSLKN
Sequence of Cytochrome P450 2E1 (P05181 whole entry): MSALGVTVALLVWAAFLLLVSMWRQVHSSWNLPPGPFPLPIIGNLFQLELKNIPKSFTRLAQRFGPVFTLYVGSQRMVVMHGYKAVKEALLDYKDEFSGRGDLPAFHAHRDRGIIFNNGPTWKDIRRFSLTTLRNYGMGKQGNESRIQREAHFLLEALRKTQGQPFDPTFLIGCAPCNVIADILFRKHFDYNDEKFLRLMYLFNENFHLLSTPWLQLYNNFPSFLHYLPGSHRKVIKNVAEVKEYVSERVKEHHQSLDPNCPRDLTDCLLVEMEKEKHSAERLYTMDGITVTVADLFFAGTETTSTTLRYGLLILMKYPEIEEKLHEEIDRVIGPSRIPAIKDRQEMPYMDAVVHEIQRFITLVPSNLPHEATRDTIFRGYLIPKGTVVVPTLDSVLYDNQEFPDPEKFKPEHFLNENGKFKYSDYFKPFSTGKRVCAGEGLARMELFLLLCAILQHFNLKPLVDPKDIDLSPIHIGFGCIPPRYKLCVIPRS
Sequence of Insulin receptor (P15127 27-759 limits assumed): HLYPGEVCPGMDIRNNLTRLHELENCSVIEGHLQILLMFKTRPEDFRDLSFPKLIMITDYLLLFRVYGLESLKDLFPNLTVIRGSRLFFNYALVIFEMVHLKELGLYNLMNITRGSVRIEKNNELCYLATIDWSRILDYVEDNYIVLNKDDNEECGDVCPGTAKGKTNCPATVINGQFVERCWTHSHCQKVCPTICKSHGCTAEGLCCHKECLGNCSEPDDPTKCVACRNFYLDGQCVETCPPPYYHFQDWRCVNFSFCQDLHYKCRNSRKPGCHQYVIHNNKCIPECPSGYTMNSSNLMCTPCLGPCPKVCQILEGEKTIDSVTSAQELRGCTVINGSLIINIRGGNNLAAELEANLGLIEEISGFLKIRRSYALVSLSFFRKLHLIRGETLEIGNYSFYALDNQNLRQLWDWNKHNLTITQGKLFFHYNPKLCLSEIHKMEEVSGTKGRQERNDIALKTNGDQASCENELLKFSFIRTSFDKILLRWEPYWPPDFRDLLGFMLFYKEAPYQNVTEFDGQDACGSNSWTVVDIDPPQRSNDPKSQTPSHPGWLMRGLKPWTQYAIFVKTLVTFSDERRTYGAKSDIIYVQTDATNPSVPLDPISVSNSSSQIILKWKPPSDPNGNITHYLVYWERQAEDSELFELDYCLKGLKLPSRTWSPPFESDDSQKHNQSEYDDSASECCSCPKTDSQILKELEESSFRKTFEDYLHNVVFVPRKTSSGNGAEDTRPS
Sequence of Insulin receptor (P15127 764-1383 limits assumed): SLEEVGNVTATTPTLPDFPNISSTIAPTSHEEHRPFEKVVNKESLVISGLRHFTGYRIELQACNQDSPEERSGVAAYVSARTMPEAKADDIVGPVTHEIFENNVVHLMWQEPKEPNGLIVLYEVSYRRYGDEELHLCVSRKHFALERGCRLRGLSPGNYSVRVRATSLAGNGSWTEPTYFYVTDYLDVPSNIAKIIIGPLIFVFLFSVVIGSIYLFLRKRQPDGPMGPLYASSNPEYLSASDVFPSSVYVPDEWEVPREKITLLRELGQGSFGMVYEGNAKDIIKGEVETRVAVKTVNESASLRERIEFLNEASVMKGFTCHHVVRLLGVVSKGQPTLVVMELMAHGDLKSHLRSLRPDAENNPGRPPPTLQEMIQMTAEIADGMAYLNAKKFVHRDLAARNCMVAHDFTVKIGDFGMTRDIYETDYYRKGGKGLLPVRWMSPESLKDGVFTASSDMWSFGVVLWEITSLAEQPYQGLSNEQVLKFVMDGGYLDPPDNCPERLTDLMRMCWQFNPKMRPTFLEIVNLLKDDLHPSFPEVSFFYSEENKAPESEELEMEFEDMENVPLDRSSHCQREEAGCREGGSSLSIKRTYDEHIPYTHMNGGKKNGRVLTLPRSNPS

For `O=c1cc(N2CCOCC2)oc2c(-c3ccccc3)cccc12` [LY-294002], the IC50 entry in [1], in [2], in data set [3], in data set [4], in data set [5] and in data set [6] was “Not Active” in each case. In addition, the IC50 result in data set [7], in data set [8] and in [9] was “Not Active” each time. Moreover, the Ki result in [1], in [4], in [5], in [6] and in data set [8] was “Not Active” each time.
On to `N=C(N)NC(=O)Cc1c(Cl)cccc1Cl` [GUANFACINE], for which the IC50 result in data set [1], in [2], in data set [3], in [4], in [5] and in [6] was “Not Active” each time. Moreover, the IC50 result in data set [7], in [8] and in data set [9] was “Not Active” each time. Besides, the Ki result in data set [1], in data set [4], in data set [5], in [6] and in data set [8] was “Not Active” each time.
In the case of `NC(=O)C[S+]([O-])C(c1ccccc1)c1ccccc1` (stereo not given) [MODAFINIL], the IC50 result in data set [1], in data set [2], in [3], in data set [4], in data set [5] and in data set [6] was “Not Active” each time. For the same compound, the IC50 result in data set [7], in data set [8] and in data set [9] was “Not Active” each time. Also, the Ki result in [1], in [4], in [5], in [6] and in data set [8] was “Not Active” in each case.
Consider `CC(C)(C)NC(=O)[C@H]1CC[C@H]2[C@@H]3CC[C@H]4NC(=O)C=C[C@]4(C)[C@H]3CC[C@]12C` [FINASTERIDE], for which the IC50 entry in data set [1], in data set [2], in data set [3], in data set [4], in data set [5] and in [6] was “Not Active” throughout. Besides, the IC50 entry in data set [7], in [8] and in [9] was “Not Active” in each case. Also, the Ki result in data set [1], in [4], in data set [5], in data set [6] and in data set [8] was “Not Active” each time.
As for `CC(C)NNC(=O)c1ccncc1` [IPRONIAZID], the IC50 result in data set [1], in data set [2], in [3], in [4], in [5] and in [6] was “Not Active” throughout. Also, the IC50 result in data set [7], in [8] and in data set [9] was “Not Active” each time. For the same compound, the Ki result in data set [1], in [4], in data set [5], in [6] and in data set [8] was “Not Active” throughout.
In the case of GRAMICIDIN, the IC50 entry in data set [1], in data set [2], in [3], in [4], in [5] and in [6] was “Not Active” throughout. The IC50 entry in data set [7], in data set [8] and in data set [9] was “Not Active” in each case. Further, the Ki result in data set [1], in data set [2], in data set [3], in data set [4], in data set [5] and in data set [6] was “Not Active” in each case. In addition, the Ki result in [7], in data set [8] and in data set [9] was “Not Active” each time.
As to `O=C(N/N=C/c1ccc([N+](=O)[O-])o1)c1cc([N+](=O)[O-])cc([N+](=O)[O-])c1O` [NIFURSOL], the IC50 entry in [1], in [2], in [3], in data set [4], in data set [5] and in data set [6] was “Not Active” in each case. The IC50 result in [7], in data set [8] and in data set [9] was “Not Active” each time. Besides, the Ki result in [1], in data set [4], in data set [5], in [6] and in [8] was “Not Active” in each case.
In the case of `Oc1cccc(O)c1O` [PYROGALLOL], the IC50 result in [1], in [2], in data set [3], in data set [4], in data set [5] and in data set [6] was “Not Active” in each case. In addition, the IC50 entry in [7], in [8] and in [9] was “Not Active” throughout. The Ki entry in data set [1], in data set [4], in [5], in data set [6] and in [8] was “Not Active” in each case.
For orientation: pIC50 means the IC50 on a negative log10 scale, so that one unit is a factor of ten. As to `COc1cc2nc(N3CCN(C(=O)c4ccco4)CC3)nc(N)c2cc1OC` [PRAZOSIN], the IC50 entry in data set [1], in data set [2], in data set [4], in [5], in data set [6] and in data set [7] was “Not Active” each time. In addition, the IC50 entry in data set [8] and in data set [9] was “Not Active” throughout. The Ki result in data set [1], in data set [4], in data set [5], in data set [6] and in data set [8] was “Not Active” in each case. The pIC50 in data set [3] (read-out: IC50) was 5.16.
Consider `NNc1nncc2ccccc12` [HYDRALAZINE], for which the IC50 result in data set [1], in data set [2], in [3], in data set [4], in [5] and in data set [6] was “Not Active” throughout. The IC50 result in data set [7], in data set [8] and in [9] was “Not Active” throughout. For the same compound, the Ki entry in [1], in data set [4], in data set [5], in data set [6] and in [8] was “Not Active” in each case.
`C[C@]12C=CC(=O)C=C1CC[C@@H]1[C@@H]2[C@@H](O)C[C@@]2(C)[C@H]1CC[C@]2(O)C(=O)CO` [PREDNISOLONE]: the IC50 entry in data set [1], in data set [2], in data set [3], in [4], in [5] and in data set [6] was “Not Active” in each case. Also, the IC50 result in data set [7], in data set [8] and in data set [9] was “Not Active” in each case. The Ki result in data set [1], in data set [4], in data set [5], in data set [6] and in data set [8] was “Not Active” in each case.
As for `O=C1O[C@H]([C@@H](O)CO)C(O)=C1O` [ASCORBIC ACID], the IC50 entry in data set [1], in data set [2], in data set [3], in data set [4], in [5] and in [6] was “Not Active” in each case. Besides, the IC50 result in [7], in data set [8] and in data set [9] was “Not Active” in each case. Also, the Ki entry in data set [1], in data set [4], in data set [5], in data set [6] and in [8] was “Not Active” throughout.
For `C[n+]1ccccc1/C=N/O.[Cl-]` [PRALIDOXIME CHLORIDE], the IC50 result in [1], in data set [2], in data set [3], in data set [4], in [5] and in [6] was “Not Active” in each case. The IC50 result in data set [7], in data set [8] and in data set [9] was “Not Active” each time. For the same compound, the Ki entry in [1], in data set [4], in data set [5], in data set [6] and in [8] was “Not Active” each time.
In the case of `CCC1(CCC(C)C)C(=O)NC(=O)NC1=O` [AMOBARBITAL], the IC50 result in data set [1], in data set [2], in data set [3], in [4], in [5] and in data set [6] was “Not Active” throughout. In addition, the IC50 entry in data set [7], in data set [8] and in data set [9] was “Not Active” in each case. Besides, the Ki entry in data set [1], in [4], in data set [5], in [6] and in [8] was “Not Active” each time.
